# Results taken from US8084459B2, “Substituted quinazolinones for treating neurological conditions” (Prana Biotechnology Ltd, priority 2004, dated 2011).
# System: not listed separately
# Assay: Assay 16 mouse plasma levels of test compounds
# Format: in vivo
# Details: highest level found in mice (Up to); oral dosing 30 mg/kg described for PB 1075-1077
# Description: Assay 16. Determination of Mouse Plasma Levels of Test Compounds PB 1075
# Oral administration of PB 1075 at 30 mg/kg, as a suspension in Na-Carboxymethyl Cellulose (CMC) was administered by oral gavage to four mice. Two mice were sacrificed 30 minutes after administration and two mice were sacrificed 60 minutes after administration. Blood was obtained by cardiac puncture and plasma separated by centrifugation.
# The concentration of PB 1075 was determined by LC/MS using the triple quadrupole instrument. The mobile phase consisted of an acetonitrile (ACN)/water gradient (containing 0.05% Formic acid) and the column was a Phenomenex Lunea 5 um C8 (50×2 mm) column.
# The supplied acute toxicity mouse plasma samples were directly injected following a protein precipitation with ACN. The analytical method in plasma was linear in the range of 10 to 10,000 ng/ml (R^2=0.994). Recovery of PB 1075 from plasma was ˜100%.
# Oral administration of PB 1076 at 30 mg/kg, as a suspension in Na-Carboxymethyl Cellulose (CMC) was administered by oral gavage to four mice. Two mice were sacrificed 30 minutes after administration and two mice were sacrificed 60 minutes after administration. Blood was obtained by cardiac puncture and plasma separated by centrifugation.
# The concentration of PB 1076 was determined by LC/MS using the triple quadrupole instrument. The mobile phase consisted of an acetonitrile (ACN)/water gradient (containing 0.05% Formic acid) and the column was a Phenomenex Luna 5 μM C8 (50×2 mm) column.
# The mouse plasma samples were directly injected following a protein precipitation with ACN. The analytical method in plasma was linear in the range of 500 to 10,000 ng/ml (R^2=0.999). Recovery of PB 1076 from plasma was ˜85%.
# Oral administration of PB 1077 at 30 mg/kg, as a suspension in Na-Carboxymethyl Cellulose (CMC) was administered by oral gavage to four mice. Two mice were sacrificed 30 minutes after administration and two mice were sacrificed 60 minutes after administration. Blood was obtained by cardiac puncture and plasma separated by centrifugation.
# The concentration of PB 1077 was determined by LC/MS using the triple quadrupole instrument. The mobile phase consisted of an acetonitrile (ACN)/water gradient (containing 0.05% Formic acid) and the column was a Phenomenex Luna 5 μM C8 (50×2 mm) column.
# The mouse plasma samples were directly injected following a protein precipitation with ACN. The analytical method in plasma was linear in the range of 5 to 5,000 ng/ml (R^2=0.999). Recovery of PB 1077 from plasma was ˜92%.
row,SMILES,Assay 16 Mice plasma concentration
1,CN1CCN(n2cnc3c(O)c(Cl)cc(Cl)c3c2=O)CC1 [Compound 1081],Up to 207 ng/mL

# Molecular target: T1, Aβ 1-42 (Homo sapiens, UniProt P05067)
# T1 construct: The reaction solutions contained Aβ 1-42 at concentrations
# T1 sequence (P05067 672-713 limits assumed): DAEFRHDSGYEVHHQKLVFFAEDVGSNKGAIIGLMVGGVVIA
# Assay: Assay 1 Fluorometric H2O2 assay (peroxide)
# Format: biochemical
# Details: inhibition of H2O2 generation by Aβ with copper
# Description: Assay 1. Fluorometric H2O2 Assay
# A fluorometric assay was used to test the ability of a test compound to inhibit hydrogen peroxide generation by Aβ in the presence of copper based on dichlorofluoroscein diacetate (DCF; Molecular Probes, Eugene Oreg.). The DCF solution (5 mM) in 100% dimethyl sulphoxide (previously purged with argon for 1 hr at 20° C.) was deacetylated in the presence of 0.025M NaOH for 30 min and neutralised at pH 7.4 to a final concentration of 1 mM. Horseradish peroxidase (HRP) stock solution was prepared to 1 μM at pH 7.4. The reactions were carried out in PBS, pH 7.4 in a 96 well plate (total volume=250 μl/well). The reaction solutions contained Aβ 1-42 at concentrations in the range of 50 nM to 1 μM, copper-glycine chelate (Cu-Gly), was prepared by adding CuCl2 to glycine in the ratio of 1:6 and added to the Aβ in the proportion 2Cu-Gly:1Aβ), reducing agents including dopamine (5 μM) or ascorbic acid, deacetylated DCF 100 μM, and HRP, 0.1 μM. 1-10 μM EDTA or another chelator may also be present as a control for free copper, but was not required for the assay to function. The reaction mixture was incubated at 37 C for 60 min. Catalase (4000 units/ml) and H2O2 (1-2.5 μM) standards in PBS pH 7.4 may be included as positive controls. Fluorescence was recorded using a plate reader with excitation and emission filters at […] respectively. H2O2 concentration may be established by comparing fluorescence with the H2O2 standards. Inhibition of Aβ H2O2 production was assayed by including a given concentration of test compound(s) in the test wells.
row,SMILES,IC50
1,O=c1c2c(Cl)cc(Cl)c(O)c2ncn1N1CCOCC1 [Compound 1080],440 nM
2,CN1CCN(n2cnc3c(O)c(Cl)cc(Cl)c3c2=O)CC1 [Compound 1081],550 nM
3,O=c1c2c(Cl)cc(Cl)c(O)c2ncn1-c1ccc(Cl)cn1 [Compound 1087],1520 nM
4,CCn1nccc1-n1cnc2c(O)c(Cl)cc(Cl)c2c1=O [Compound 1088],840 nM
5,Cc1ccc(-n2cnc3c(O)c(Cl)cc(Cl)c3c2=O)nc1 [Compound 1089],780 nM
6,O=c1c2c(Cl)cc(Cl)c(O)c2ncn1CCc1ccccn1 [Compound 1091],460 nM

# System: not listed separately
# Assay: Assay 3(d) test compound cytotoxicity (MTS)
# Format: cell-based
# Details: BL6Jx129sv, mouse, primary cortical neuronal cultures, 1 uM, cortical neurons, read-out: Assay 3(d) Cytotoxicity (% viable at 1 uM)
# Description: (§1) Primary Cortical Neuronal Cultures
# (§2) Cortical cultures were prepared as previously described (White et al., 1998). Embryonic day 14 BL6Jx129sv mouse cortices were removed, dissected free of meninges and dissociated in 0.025% (wt/vol) trypsin. Dissociated cells were plated in 48 well culture plates at a density of 2×10^6 cells/mL in MEM with 25% (vol/vol) FCS and 5% (vol/vol) HS and incubated at 37° C., 2 hrs. Media was then replaced with Neurobasal media (Invitrogen Life Technologies) and B27 supplements (Invitrogen Life Technologies). Cultures were maintained at 37° C. in 5% CO2. Prior to experimentation, the culture medium was replaced with Neurobasal media and B27 minus antioxidants (Invitrogen Life Technologies).
# (a) MTS Assay for Cell Viability
# Cell viability is determined using the MTS assay. Culture medium is replaced with fresh neurobasal medium plus B27 supplements minus antioxidants. 1/10 volume MTS solution (Cell Titre 96 Aqueous One, Promega Corporation) and incubated at 37° C., 2 hrs. 200 microlitre aliquots are measured with a spectrophotometer at 560 nm.
# (d) Assay for Test Compound Cytoxicity
# Neuronal cortical cells were cultured for five days as per Assay 2 in NB media and B27 supplement.
# On day six the test compounds were added to the neuronal cell cultures in NB media and B27 supplement minus antioxidants.
# Test compounds were dissolved in 100% DMSO to a concentration of 2.5 mM (10 mM if excess compound was weighed out per vial—then diluted to 2.5 mM). 2.5 mM stock solution was serially diluted 1 in 10 to give working solutions of 250 uM, 25 uM, 2.5 uM. Test compounds were not added directly to cells, instead they were added to a 48 well ‘Drug Plate’ as comprised below:
# (§3) Preparation of “Drug Plate”:
# • Well 1: 576 ul NB+B27 (no antioxidant)*+24 ul 2.5 uM test compound • Well 2: 576 ul NB+B27 (no antioxidant)+24 ul 25 uM test compound • Well 3: 576 ul NB+B27 (no antioxidant)+24 ul 250 uM test compound • Well 4: 576 ul NB+B27 (no antioxidant)+24 ul 2.5 uM test compound • Well 5: 576 ul NB+B27 (no antioxidant)+24 ul 25 uM test compound • Well 6: 576 ul NB+B27 (no antioxidant)+24 ul 250 uM test compound • Well 7: 576 ul NB+B27 (no antioxidant)+24 ul test compound diluent** • Well 8: 600 ul NB+B27 (no antioxidant)
# The Drug Plate was incubated at 37° C. for 15 mins. 200 ul of each well was added in triplicate to the corresponding cell plate. The cell plate was incubated at 37° C., for 4 days, (2 compounds are tested on each plate of cells).
# * NB media and B27 (no antioxidants),
# ** PBT diluent 10% DMSO in NB+B27 (no antioxidants)
# On completion of the assay, 1/10 volume MTS was added per well of plate (ie 25 ul/250 ul). The plates were incubated at 37° C. for 2 hrs, and then absorbance was read at 560 nm.
row,SMILES,"viability at 4 days, 1 µM"
1,O=c1c2c(Cl)cc(Cl)c(O)c2ncn1-c1ccc(Cl)cn1 [Compound 1087],94%
2,Cc1ccc(-n2cnc3c(O)c(Cl)cc(Cl)c3c2=O)nc1 [Compound 1089],96%
3,O=c1c2c(Cl)cc(Cl)c(O)c2ncn1CCc1ccccn1 [Compound 1091],100%
4,O=c1c2c(Cl)cc(Cl)c(O)c2ncn1CC1CCNCC1 [Compound 1094],97%

# Same assay, conditions: BL6Jx129sv, mouse, primary cortical neuronal cultures, 10 uM, cortical neurons, read-out: Assay 3(d) Cytotoxicity (% viable at 10 uM)
row,SMILES,"viability at 4 days, 10 µM"
1,O=c1c2c(Cl)cc(Cl)c(O)c2ncn1N1CCOCC1 [Compound 1080],70%
2,O=c1c2c(Cl)cc(Cl)c(O)c2ncn1-c1ccc(Cl)cn1 [Compound 1087],58%
3,CCn1nccc1-n1cnc2c(O)c(Cl)cc(Cl)c2c1=O [Compound 1088],94%
4,Cc1ccc(-n2cnc3c(O)c(Cl)cc(Cl)c3c2=O)nc1 [Compound 1089],83%
5,O=c1c2c(Cl)cc(Cl)c(O)c2ncn1CCc1ccccn1 [Compound 1091],92%
6,O=c1c2c(Cl)cc(Cl)c(O)c2ncn1CC1CCNCC1 [Compound 1094],96%

# System: Aβ1-42 toxicity in neuronal cortical cells
# Assay: Assay 3(c) Aβ neurotoxicity and neuroprotection (MTS)
# Format: cell-based, mouse
# Details: 20 uM Aβ1-42, cortical neurons, 4 days
# Description: as §1, §2
# (c) Assay for Aβ Neurotoxicity and Aβ Neuroprotection
# Neuronal cortical cells were cultured for five days as per Assay 2. On day six the neurobasal (NB) media (Invitrogen Life Technologies) and B27 supplement (Invitrogen Life Technologies) were replaced with NB media and B27 supplement (no antioxidants). On day six, test compounds were individually added to the neuronal cell cultures:
# The test compounds were dissolved in 100% DMSO to a concentration of 2.5 mM (10 mM if excess compound was weighed out per vial—then diluted to 2.5 mM). 2.5 mM stock solution was serially diluted 1 in 10 to give working solutions of 250 uM, 25 uM, 2.5 uM.
# Aβ was initially dissolved in 20 mM NaOH to a concentration of 1 mM and sonicated for 5 minutes. The peptide was then diluted in H2O and 10×PBS to a final concentration of 200 uM Aβ in 1× PBS. The peptide was again sonicated for 5 minutes and then spun at 14000 rpm for 5 min and transferred to a fresh tube.
# The test compounds were dissolved in 100% DMSO to a concentration of 2.5 mM (10 mM if excess compound was weighed out per vial—then diluted to 2.5 mM). 2.5 mM stock solution was serially diluted 1 in 10 [in NB media and B27 (no antioxidants)] to give working solutions of 250 uM, 25 uM, 2.5 uM. Test compounds were not added directly to cells, instead they were added to a 48 well ‘Drug Plate’ as comprised below:
# as §3
# Well 1: 515 ul NB+B27 (no antioxidant)*+24 ul 25 uM test compound+60 ul Aβ diluent**
# Well 2: 515 ul NB+B27 (no antioxidant)+24 ul 250 uM test compound+60 ul Aβ diluent
# Well 3: 515 ul NB+B27 (no antioxidant)+24 ul test compound diluent***+60 ul Aβ1-42
# Well 4: 515 ul NB+B27 (no antioxidant)+24 ul 2.5 uM test compound+60 ul Aβ1-42
# Well 5: 515 ul NB+B27 (no antioxidant)+24 ul 25 uM test compound+60 ul Aβ1-42
# Well 6: 515 ul NB+B27 (no antioxidant)+24 ul 250 uM test compound+60 ul Aβ1-42 diluent
# Well 7: 515 ul NB+B27 (no antioxidant)+24 ul test compound diluent+60 ul Aβ1-42 diluent
# Well 8: 600 ul NB+B27 (no antioxidant)
# The Drug Plate was incubated at 37° C. for 15 mins. 200 ul of each well was added in triplicate to the corresponding cell plate. The cell plate was incubated at 37 C, for 4 days.
# * NB media+B27 (no antioxidants)
# ** Aβ diluent 2 mM NaOH, 1×PBS
# *** PBT diluent 10% DMSO in NB+B27 (no antioxidant)
# On the 4th day after treating the cells the assay is completed by adding MTS to the cells.
row,SMILES,Assay 3(c) Neuroprotection (% inhibition of Abeta toxicity)
1,O=c1c2c(Cl)cc(Cl)c(O)c2ncn1N1CCOCC1 [Compound 1080],15%
2,CN1CCN(n2cnc3c(O)c(Cl)cc(Cl)c3c2=O)CC1 [Compound 1081],7%
3,O=c1c2c(Cl)cc(Cl)c(O)c2ncn1-c1ccc(Cl)cn1 [Compound 1087],11%
4,CCn1nccc1-n1cnc2c(O)c(Cl)cc(Cl)c2c1=O [Compound 1088],3%
5,Cc1ccc(-n2cnc3c(O)c(Cl)cc(Cl)c3c2=O)nc1 [Compound 1089],13%
6,O=c1c2c(Cl)cc(Cl)c(O)c2ncn1CCc1ccccn1 [Compound 1091],−8%
7,O=c1c2c(Cl)cc(Cl)c(O)c2ncn1CC1CCNCC1 [Compound 1094],1%
